According to patent US20250255888A1, “Use of Baby Aspirin with Diphenhydramine or other Sleep Aids” (priority 2024, published 2025):
Counter-ions that a name gives are not always drawn.

Assay: Self-reported use as a sleep aid at night: sleep and morning aftereffects (applicant and two friends)
Format: in vivo
Settings: patent applicant, taken for sleep, morning after; worse with less than seven hours of sleep
Description: They further recommended same to two of their close friends who had complained of same aftereffects of Benadryl.
When aspirin was used with other sleep aids that contain diphenhydramine as an active ingredient, similar result was obtained.

## CN(C)CCOC(c1ccccc1)c1ccccc1 [Benadryl, diphenhydramine HCL]
  aftereffects in the morning (poor sleep quality, lingering drowsiness, difficulty concentrating): would experience some of the aftereffects of Benadryl such as poor sleep quality, lingering drowsiness or difficulty concentrating
